Data: PubChem BioAssay AID743476 (The Scripps Research Institute Molecular Screening Center, 2014)
Active and inactive are the calls of the source. How the calls were made is not given here.

Tested on: CCHF-vOTU
Test: PubChem AID 743476
Details: Recombinant CCHFV vOTU, PEP-AMC fluorescence cleavage, with PEP-AMC substrate, active compounds read high

Which inhibition (Assay 1, at 4.39 µM) does the source give for CCc1cc[n+](C2=C(NS(=O)(=O)c3cccs3)C(=O)c3ccccc3C2=O)cc1 here?
Its inhibition is 13.7% (inactive).

And the inhibition (Assay 2, at 4.39 µM)?
The inhibition was 18.6% (inactive).

And the inhibition (Assay 3, at 8.78 µM)?
The inhibition was 37.9%.

For CCn1nc(/C=C/c2ccccc2)nc2c(=O)n(C)c(=O)nc1-2, which inhibition (Assay 1, at 0.28 µM) is on record?
The inhibition was 58.4%.

And the inhibition (Assay 2, at 0.28 µM)?
Its inhibition is 91.9%.

What does the source list for CC1(C)C=C2C(=NN(c3ccccc3)C(N)=C2C#N)CO1?
inhibition (Assay 1, at 1.83 µM): -4.71% (inactive); inhibition (Assay 2, at 1.83 µM): 23.4%

Which results are given for O=C1Cc2ccccc2C(=O)N1Cc1ccccc1?
inhibition (Assay 1, at 1.28 µM): 38.7%; inhibition (Assay 2, at 1.28 µM): 50.3%

Which results are given for COc1ccc2noc3c2c1C(=O)c1ccccc1-3?
inhibition (Assay 1, at 3.08 µM): 16.5% (inactive); inhibition (Assay 2, at 3.08 µM): 15.2% (inactive); inhibition (Assay 3, at 6.16 µM): 64.3%

What does the source list for S=C(Nc1ccc(Cl)cc1)Nc1cccc2cnccc12?
inhibition (Assay 1, at 6.44 µM): -17.9% (inactive); inhibition (Assay 2, at 6.44 µM): 5.81% (inactive); inhibition (Assay 3, at 12.88 µM): 7.7% (inactive)

What does the source list for COc1cc(Br)c(C(=O)c2nccc3cc(OC)c(OC)cc23)cc1OC?
inhibition (Assay 1, at 0.27 µM): 31.9%; inhibition (Assay 2, at 0.27 µM): 25.2%

Which results are given for O=C(O)CSc1cc(NS(=O)(=O)c2ccc(Cl)cc2)c2ccccc2c1O?
inhibition (Assay 1, at 5 µM): 6.76% (inactive); inhibition (Assay 2, at 5 µM): 8.14% (inactive); inhibition (Assay 3, at 10 µM): 7.8% (inactive)

What does the source list for O=C(O)CSc1cc(NS(=O)(=O)c2cccc([N+](=O)[O-])c2)c2ccccc2c1O?
inhibition (Assay 1, at 2.44 µM): -7.65% (inactive); inhibition (Assay 2, at 2.44 µM): 5.22% (inactive); inhibition (Assay 3, at 4.88 µM): 13.1% (inactive)

O=C1OC(Nc2cc(Br)cc3cccnc23)c2ccccc21 (stereo not drawn) was tested. Which inhibition (Assay 1, at 5.23 µM) did it give?
The inhibition was 21.7%.

And the inhibition (Assay 2, at 5.23 µM)?
The inhibition was 16.9% (inactive).

What about the inhibition (Assay 3, at 10.46 µM) of the same molecule?
Its inhibition is 10.9% (inactive).

Which results are given for O=C(c1ccco1)[C@@H]1[C@@H]2C(=O)N(c3ccc(Br)cc3)C(=O)[C@@H]2C2c3ccccc3C=CN21 (stereo partly drawn)?
inhibition (Assay 1, at 5.26 µM): -13.1% (inactive); inhibition (Assay 2, at 5.26 µM): 37.6%

What does the source list for O=C(COC(=O)c1ccc([N+](=O)[O-])s1)Nc1ncc(C(F)(F)F)cc1Cl?
inhibition (Assay 1, at 8.84 µM): 23.2%; inhibition (Assay 2, at 8.84 µM): 19.8% (inactive); inhibition (Assay 3, at 17.68 µM): 30.5%

For NS(=O)(=O)c1ccc(NC(=O)COC(=O)c2ccc([N+](=O)[O-])s2)cc1, which inhibition (Assay 1, at 8.31 µM) is on record?
The inhibition was 70.6%.

What about the inhibition (Assay 2, at 8.31 µM) of the same molecule?
The inhibition was 24.6%.

What about the inhibition (Assay 3, at 16.62 µM) of the same molecule?
Its inhibition is 23.1%.

How did the inhibition (Assay 1, at 6.87 µM) turn out when O=C1C=C(Nc2ccccc2)c2ccccc2C1=O was run?
Its inhibition is 22.4%.

And the inhibition (Assay 2, at 6.87 µM)?
The inhibition was 52.9%.

Which results are given for O=C1Cc2ccccc2C(=O)N1?
inhibition (Assay 1, at 0.4 µM): 38.8%; inhibition (Assay 2, at 0.4 µM): 54.3%

For COC(CNC(=O)c1ccc2c3c(onc13)-c1ccccc1C2=O)OC, which inhibition (Assay 1, at 3.49 µM) is on record?
The inhibition was 16.6% (inactive).

What about the inhibition (Assay 2, at 3.49 µM) of the same molecule?
Its inhibition is 12.4% (inactive).

What about the inhibition (Assay 3, at 6.98 µM) of the same molecule?
The inhibition was 35.5%.

What does the source list for Cn1nc(-c2ccccn2)nc2c(=O)n(C)c(=O)nc1-2?
inhibition (Assay 1, at 0.37 µM): 63.3%; inhibition (Assay 2, at 0.37 µM): 56.2%

What does the source list for CC(=O)c1ccc(NC(=S)Nc2cccc3cnccc23)cc1?
inhibition (Assay 1, at 6.84 µM): 0.13% (inactive); inhibition (Assay 2, at 6.84 µM): 3.01% (inactive); inhibition (Assay 3, at 13.68 µM): 6.6% (inactive)

Which results are given for O=c1[nH]c(Nc2ccccc2)cc2cc(Br)ccc12?
inhibition (Assay 2, at 1 µM): 34.1%; inhibition (Assay 3, at 2 µM): 42.6%

With COC1=C(N)C(=O)c2nc(C)ccc2C1=O as the molecule, how does the inhibition (Assay 1, at 1.37 µM) read?
The inhibition was 16.7% (inactive).

What about the inhibition (Assay 2, at 1.37 µM) of the same molecule?
The inhibition was 50.9%.

For Cc1ccc(NC2=CC(=O)C(=O)c3ccccc32)cc1, which inhibition (Assay 1, at 7.14 µM) is on record?
The inhibition was 20%.

What about the inhibition (Assay 2, at 7.14 µM) of the same molecule?
The inhibition was 51.9%.

Which results are given for Cc1ccc(N2C(=O)[C@@H]3[C@H](C2=O)C2c4ccccc4C=CN2[C@@H]3C(=O)c2ccco2)cc1 (stereo partly drawn)?
inhibition (Assay 1, at 4.21 µM): 8.15% (inactive); inhibition (Assay 2, at 4.21 µM): 18.6% (inactive); inhibition (Assay 3, at 8.42 µM): 44.7%

O=S(=O)(Nc1cc2nc3ccccc3nc2n1Cc1ccccc1)c1ccc(Cl)cc1 was tested. Which inhibition (Assay 1, at 2.57 µM) did it give?
The inhibition was 72.3%.

What about the inhibition (Assay 2, at 2.57 µM) of the same molecule?
Its inhibition is -112% (inactive).

And the inhibition (Assay 3, at 5.14 µM)?
Its inhibition is 47.9% (inactive).

Which inhibition (Assay 1, at 4.85 µM) does the source give for NS(=O)(=O)c1ccc(NC2=CC(=O)C(=O)c3ccccc32)cc1 here?
Its inhibition is 6.01% (inactive).

What about the inhibition (Assay 2, at 4.85 µM) of the same molecule?
The inhibition was 30.6%.

How did the inhibition (Assay 1, at 2.35 µM) turn out when CCOC(=O)N=Nc1c2ccccc2c2nc3no[nH]c3nc12 was run?
Its inhibition is 8.81% (inactive).

What about the inhibition (Assay 2, at 2.35 µM) of the same molecule?
The inhibition was 13.6% (inactive).

And the inhibition (Assay 3, at 4.7 µM)?
The inhibition was 25.3%.
